#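 Growth conditions: 96-well plates. Treatment: test compound, 48 hours, 5 concentrations. Analysis: linear interpolation between bracketing concentrations; unreached endpoints set to highest concentration. Abbreviation: GI50, concentration required for 50% inhibition of growth. Definition used: TGI = concentration required for complete inhibition of growth.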
# Columns and labels:
# Test in all cases: DTP human tumour cell line panel, 48 h
# HCC-2998 colon = test system: HCC-2998 colon
# NCI-H226 lung = test system: NCI-H226 lung
# HOP-92 NSCLC = test system: HOP-92 NSCLC
# 786-0 renal = test system: 786-0 renal
# K-562 leukemia = test system: K-562 leukemia
# MDA-MB-231 breast = test system: MDA-MB-231 breast
# CCRF-CEM leukemia = test system: CCRF-CEM leukemia
# BT-549 breast = test system: BT-549 breast
# OVCAR-3 ovarian = test system: OVCAR-3 ovarian
# MCF7 breast = test system: MCF7 breast
Structure (SMILES),GI50 (HCC-2998 colon),TGI (HCC-2998 colon),GI50 (NCI-H226 lung),TGI (NCI-H226 lung),GI50 (HOP-92 NSCLC),TGI (HOP-92 NSCLC),GI50 (786-0 renal),TGI (786-0 renal),GI50 (K-562 leukemia),TGI (K-562 leukemia),GI50 (MDA-MB-231 breast),TGI (MDA-MB-231 breast),GI50 (CCRF-CEM leukemia),TGI (CCRF-CEM leukemia),GI50 (BT-549 breast),TGI (BT-549 breast),GI50 (OVCAR-3 ovarian),TGI (OVCAR-3 ovarian),GI50 (MCF7 breast),TGI (MCF7 breast)
COC1=C(C)C(=O)c2c(c(CCCl)c3n2CCC3OC(C)=O)C1=O (stereo not given),204 nM,0.582 µM,246 nM,1.03 µM,4480 nM,24 µM,287 nM,1.24 µM,1650 nM,> 33.1 µM,17500 nM,61.7 µM,3330 nM,> 95.8 µM,149 nM,0.652 µM,1480 nM,5.43 µM,71 nM,1.85 µM
O=C(C=P(c1ccccc1)(c1ccccc1)c1ccccc1)CCl,1840 nM,3.7 µM,1310 nM,2.97 µM,142 nM,0.693 µM,1610 nM,3.56 µM,844 nM,9.12 µM,1220 nM,3.03 µM,826 nM,7.41 µM,1890 nM,7.14 µM,1330 nM,2.68 µM,403 nM,1.93 µM
Cc1ccc(C=C2C(Cl)=C(Cl)C(Cl)=C2Cl)cc1,1470 nM,2.93 µM,1490 nM,3.22 µM,1330 nM,4.35 µM,721 nM,1.75 µM,202 nM,0.522 µM,1220 nM,4.76 µM,167 nM,0.49 µM,882 nM,3.32 µM,361 nM,1.06 µM,390 nM,2.37 µM
CC(C)[C@@](O)(c1ccc2cc(OC(F)F)c(OC(F)F)cc2c1)c1cn[nH]n1,18200 nM,35.8 µM,22300 nM,58.2 µM,13800 nM,30.2 µM,17200 nM,34.1 µM,19300 nM,55.3 µM,18500 nM,39.1 µM,19200 nM,55.3 µM,15200 nM,29.5 µM,16300 nM,37.1 µM,16600 nM,37.7 µM
CN(C)CCCSc1ccccc1NC1=C(Cl)C(=O)C(Nc2ccccc2SCCCN(C)C)=C(Cl)C1=O,2110 nM,5.49 µM,2210 nM,4.32 µM,1480 nM,3.06 µM,1720 nM,3.17 µM,2080 nM,5.92 µM,1780 nM,3.38 µM,476 nM,4.15 µM,1460 nM,2.87 µM,1530 nM,2.89 µM,1650 nM,3.94 µM
COC(=O)[C@]12CC[C@@H](C)[C@H](C)[C@@H]1C1=CC[C@@H]3[C@@]4(C)C[C@@H](OC(=O)/C=C/c5ccccc5)[C@H](O)[C@@](C)(CO)[C@@H]4[C@H](O)C[C@@]3(C)[C@]1(C)CC2,2130 nM,4.88 µM,2560 nM,9.15 µM,2110 nM,6.42 µM,1870 nM,3.82 µM,2450 nM,6.05 µM,1950 nM,4.17 µM,2880 nM,10.4 µM,1760 nM,3.97 µM,1980 nM,4.53 µM,3120 nM,11.5 µM
COc1ccc(C(=NN=C(N)N)c2ccc(OC)cc2)cc1,3530 nM,14.4 µM,4370 nM,18.3 µM,1900 nM,7.45 µM,3290 nM,13.1 µM,3700 nM,15.4 µM,3880 nM,17.1 µM,5180 nM,42.6 µM,3940 nM,15.6 µM,1740 nM,4.76 µM,2890 nM,12.4 µM
O=C1C=CC(=C(c2ccccc2)c2ccc(O)cc2)C=C1,–,63.9 µM,–,38 µM,–,36.1 µM,–,> 100 µM,–,68.1 µM,–,32.4 µM,–,> 100 µM,–,18.7 µM,–,32.5 µM,–,37.1 µM
